Laboratory results from ChEMBL document CHEMBL1136115, “Constrained phytoestrogens and analogues as ERbeta selective ligands” (Bioorg Med Chem Lett, 2003).

Key:
[1] = molecular target: T1, Estrogen receptor (Homo sapiens, UniProt P03372)
T1 sequence (P03372 whole entry): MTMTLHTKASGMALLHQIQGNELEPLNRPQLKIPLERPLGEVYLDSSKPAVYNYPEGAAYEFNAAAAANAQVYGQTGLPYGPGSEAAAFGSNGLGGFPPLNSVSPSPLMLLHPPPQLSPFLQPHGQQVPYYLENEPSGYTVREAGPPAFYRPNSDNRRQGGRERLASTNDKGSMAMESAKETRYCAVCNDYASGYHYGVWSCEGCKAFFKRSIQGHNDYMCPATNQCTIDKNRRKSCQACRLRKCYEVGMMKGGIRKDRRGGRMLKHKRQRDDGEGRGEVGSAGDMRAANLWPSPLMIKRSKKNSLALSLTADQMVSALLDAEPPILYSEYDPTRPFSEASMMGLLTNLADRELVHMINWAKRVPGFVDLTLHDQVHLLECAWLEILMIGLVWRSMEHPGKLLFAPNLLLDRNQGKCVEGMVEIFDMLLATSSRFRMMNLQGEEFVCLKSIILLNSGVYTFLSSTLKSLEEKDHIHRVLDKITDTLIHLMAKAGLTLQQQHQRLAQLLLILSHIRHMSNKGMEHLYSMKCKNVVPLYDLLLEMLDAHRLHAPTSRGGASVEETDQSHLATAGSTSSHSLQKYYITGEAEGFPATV
Description: Binding affinity towards human estrogen receptor alpha(ERalpha)

[2] = molecular target: T2, Estrogen receptor beta (Homo sapiens, UniProt Q92731)
Description: Binding affinity towards human estrogen receptor beta (ERbeta)

[3] = molecular target: T3, Estrogen receptor (Homo sapiens) (UniProt P03372); experiment: Efficacy in ER alpha-MCF-7 cells; type: functional, cell-based
T3 sequence (whole entry): T1 sequence (P03372 whole entry)

[4] = molecular target: T2, Estrogen receptor beta; experiment: Effective dose in metallothionein-II using metallothionein assay
[5] = molecular target: T3, Estrogen receptor (Homo sapiens); experiment: Effective dose in ERalpha-MCF-7 cells; type: functional, cell-based

T2 sequence (Q92731 whole entry): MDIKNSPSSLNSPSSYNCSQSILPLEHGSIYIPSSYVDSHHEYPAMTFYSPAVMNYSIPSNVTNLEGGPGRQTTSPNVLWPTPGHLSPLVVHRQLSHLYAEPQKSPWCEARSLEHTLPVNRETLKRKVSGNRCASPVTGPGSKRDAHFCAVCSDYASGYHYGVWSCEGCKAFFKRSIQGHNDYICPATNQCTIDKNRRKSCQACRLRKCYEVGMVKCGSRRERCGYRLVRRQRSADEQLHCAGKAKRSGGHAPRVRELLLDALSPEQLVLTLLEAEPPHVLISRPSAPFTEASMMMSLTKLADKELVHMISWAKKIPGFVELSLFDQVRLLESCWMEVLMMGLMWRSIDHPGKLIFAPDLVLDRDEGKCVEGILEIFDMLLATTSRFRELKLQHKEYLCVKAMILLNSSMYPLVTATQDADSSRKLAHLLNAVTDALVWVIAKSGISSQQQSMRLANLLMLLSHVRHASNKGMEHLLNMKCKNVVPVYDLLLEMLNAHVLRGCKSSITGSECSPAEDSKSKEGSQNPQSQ

| SMILES | IC50 [1] | IC50 [2] | Efficacy [3] | ED50 [4] | ED50 [5] |
| --- | --- | --- | --- | --- | --- |
| O=c1c2ccc(O)cc2oc2c1oc1ccccc12 | > 5000 nM |  |  |  |  |
| O=c1c2c(O)cc(O)cc2oc2oc3cc(O)ccc3c12 |  | 1.7 nM |  |  |  |
| O=c1c2ccc(O)cc2oc2c1oc1c(Br)cc(O)cc12 | > 5000 nM | 1740 nM |  |  |  |
| O=c1c2oc3c(Br)cc(O)cc3c2oc2cc(O)cc(O)c12 | 1260 nM | 343 nM |  |  |  |
| O=c1c2ccccc2oc2c1oc1cc(O)ccc12 | > 5000 nM |  |  |  |  |
| O=c1c2cc(O)ccc2oc2c1oc1ccc(O)cc12 | 180 nM |  |  |  |  |
| O=c1c2oc3ccc(O)cc3c2oc2cc(O)cc(O)c12 |  | 42 nM | 58% | 18 nM | > 500 nM |
| N#Cc1cc(O)cc2c1oc1c(=O)c3ccc(O)cc3oc12 | > 5000 nM | > 5000 nM |  |  |  |
| N#Cc1cc(O)cc2c1oc1c(=O)c3c(O)cc(O)cc3oc12 | 1550 nM | 1340 nM |  |  |  |
